Results published in ChEMBL document CHEMBL5316337, “Critical Role of Position 10 Residue in the Polymyxin Antimicrobial Activity” (J Med Chem, 2023).
In brackets after ≈: the same amount, converted by molar mass.

What was measured:
Type in all cases: functional
Klebsiella pneumoniae [1] = assay: Antibacterial activity against Carbapenem-resistant Klebsiella pneumoniae FADD1-KP065 clinical isolates assessed as reduction in bacterial growth by broth microdilution method
Klebsiella pneumoniae [2] = assay: Antibacterial activity against Carbapenem-resistant Klebsiella pneumoniae FADD1-KP032 clinical isolates assessed as reduction in bacterial growth by broth microdilution method
Enterobacter cloacae [3] = assay: Antibacterial activity against polymyxin-susceptible Enterobacter cloacae FADD1-EC001 clinical isolates assessed as reduction in bacterial growth by broth microdilution method
Acinetobacter baumannii [4] = assay: Antibacterial activity against polymyxin-susceptible Acinetobacter baumannii ATCC 19606 clinical isolates assessed as reduction in bacterial growth by broth microdilution method
Acinetobacter baumannii [5] = assay: Antibacterial activity against Carbapenem-resistant Acinetobacter baumannii FADD1-AB030 clinical isolates assessed as reduction in bacterial growth by broth microdilution method
Pseudomonas aeruginosa [6] = assay: Antibacterial activity against Carbapenem-resistant Pseudomonas aeruginosa FADD1-PA001 clinical isolates assessed as reduction in bacterial growth by broth microdilution method
Acinetobacter baumannii [7] = assay: Antibacterial activity against Carbapenem-resistant Acinetobacter baumannii FADD1-AB034 clinical isolates assessed as reduction in bacterial growth by broth microdilution method
Enterobacter cloacae [8] = assay: Antibacterial activity against polymyxin-susceptible Enterobacter cloacae FADD1-EC006 clinical isolates assessed as reduction in bacterial growth by broth microdilution method
Klebsiella pneumoniae [9] = assay: Antibacterial activity against Carbapenem-resistant Klebsiella pneumoniae FADD1-KP022 clinical isolates assessed as reduction in bacterial growth by broth microdilution method
Pseudomonas aeruginosa [10] = assay: Antibacterial activity against polymyxin-susceptible Pseudomonas aeruginosa FADD1-PA038 clinical isolates assessed as reduction in bacterial growth by broth microdilution method
Acinetobacter baumannii [11] = assay: Antibacterial activity against polymyxin-susceptible Acinetobacter baumannii ATCC 17978 clinical isolates assessed as reduction in bacterial growth by broth microdilution method
Enterobacter cloacae [12] = assay: Antibacterial activity against polymyxin-susceptible Enterobacter cloacae FADD1-EC003 clinical isolates assessed as reduction in bacterial growth by broth microdilution method
Klebsiella pneumoniae [13] = assay: Antibacterial activity against polymyxin-susceptible Klebsiella pneumoniae ATCC 700721 clinical isolates assessed as reduction in bacterial growth by broth microdilution method
Pseudomonas aeruginosa [14] = assay: Antibacterial activity against Carbapenem-resistant Pseudomonas aeruginosa FADD1-PA022 clinical isolates assessed as reduction in bacterial growth by broth microdilution method
Pseudomonas aeruginosa [15] = assay: Antibacterial activity against polymyxin-susceptible Pseudomonas aeruginosa FADD1-PA025 clinical isolates assessed as reduction in bacterial growth by broth microdilution method
Klebsiella pneumoniae [16] = assay: Antibacterial activity against Carbapenem-resistant Klebsiella pneumoniae BM1 clinical isolates assessed as reduction in bacterial growth by broth microdilution method
Pseudomonas aeruginosa [17] = assay: Antibacterial activity against polymyxin-susceptible Pseudomonas aeruginosa ATCC 27853 clinical isolates assessed as reduction in bacterial growth by broth microdilution method

CC[C@H](C)CCCCC(=O)N[C@@H](CCN)C(=O)N[C@H](C(=O)N[C@@H](CCN)C(=O)N[C@H]1CCNC(=O)[C@H](CS)NC(=O)[C@H](CCN)NC(=O)[C@H](CCN)NC(=O)[C@H](CC(C)C)NC(=O)[C@@H](Cc2ccccc2)NC(=O)[C@H](CCN)NC1=O)[C@@H](C)O
MIC (Klebsiella pneumoniae [1]): 4 µg/mL (≈ 3.32 µM) | MIC (Klebsiella pneumoniae [2]): 16 µg/mL (≈ 13.3 µM) | MIC (Enterobacter cloacae [3]): 16 µg/mL (≈ 13.3 µM) | MIC (Acinetobacter baumannii [4]): 16 µg/mL (≈ 13.3 µM) | MIC (Acinetobacter baumannii [5]): 32 µg/mL (≈ 26.5 µM) | MIC (Pseudomonas aeruginosa [6]): 8 µg/mL (≈ 6.64 µM) | MIC (Acinetobacter baumannii [7]): 16 µg/mL (≈ 13.3 µM) | MIC (Enterobacter cloacae [8]): 16 µg/mL (≈ 13.3 µM) | MIC (Klebsiella pneumoniae [9]): 4 µg/mL (≈ 3.32 µM) | MIC (Pseudomonas aeruginosa [10]): 8 µg/mL (≈ 6.64 µM) | MIC (Acinetobacter baumannii [11]): 16 µg/mL (≈ 13.3 µM) | MIC (Enterobacter cloacae [12]): 16 µg/mL (≈ 13.3 µM) | MIC (Klebsiella pneumoniae [13]): 16 µg/mL (≈ 13.3 µM) | MIC (Pseudomonas aeruginosa [14]): 4 µg/mL (≈ 3.32 µM) | MIC (Pseudomonas aeruginosa [15]): 8 µg/mL (≈ 6.64 µM) | MIC (Klebsiella pneumoniae [16]): 16 µg/mL (≈ 13.3 µM) | MIC (Pseudomonas aeruginosa [17]): 4 µg/mL (≈ 3.32 µM)

CC[C@H](C)CCCCC(=O)N[C@@H](CCN)C(=O)N[C@H](C(=O)N[C@@H](CCN)C(=O)N[C@H]1CCNC(=O)[C@H]([C@@H](C)OC)NC(=O)[C@H](CCN)NC(=O)[C@H](CCN)NC(=O)[C@H](CC(C)C)NC(=O)[C@@H](Cc2ccccc2)NC(=O)[C@H](CCN)NC1=O)[C@@H](C)O
MIC (Klebsiella pneumoniae [1]): 8 µg/mL (≈ 6.57 µM) | MIC (Klebsiella pneumoniae [2]): 2 µg/mL (≈ 1.64 µM) | MIC (Enterobacter cloacae [3]): 8 µg/mL (≈ 6.57 µM) | MIC (Acinetobacter baumannii [4]): 16 µg/mL (≈ 13.1 µM) | MIC (Acinetobacter baumannii [5]): 8 µg/mL (≈ 6.57 µM) | MIC (Pseudomonas aeruginosa [6]): 8 µg/mL (≈ 6.57 µM) | MIC (Acinetobacter baumannii [7]): 4 µg/mL (≈ 3.29 µM) | MIC (Enterobacter cloacae [8]): 32 µg/mL (≈ 26.3 µM) | MIC (Klebsiella pneumoniae [9]): 1 µg/mL (≈ 0.821 µM) | MIC (Pseudomonas aeruginosa [10]): 16 µg/mL (≈ 13.1 µM) | MIC (Acinetobacter baumannii [11]): 8 µg/mL (≈ 6.57 µM) | MIC (Enterobacter cloacae [12]): 4 µg/mL (≈ 3.29 µM) | MIC (Klebsiella pneumoniae [13]): 8 µg/mL (≈ 6.57 µM) | MIC (Pseudomonas aeruginosa [14]): 1 µg/mL (≈ 0.821 µM) | MIC (Pseudomonas aeruginosa [15]): 2 µg/mL (≈ 1.64 µM) | MIC (Klebsiella pneumoniae [16]): 8 µg/mL (≈ 6.57 µM) | MIC (Pseudomonas aeruginosa [17]): 1 µg/mL (≈ 0.821 µM)

CC[C@H](C)CCCCC(=O)N[C@@H](CCN)C(=O)N[C@H](C(=O)N[C@@H](CCN)C(=O)N[C@H]1CCNC(=O)[C@H](CCO)NC(=O)[C@H](CCN)NC(=O)[C@H](CCN)NC(=O)[C@H](CC(C)C)NC(=O)[C@@H](Cc2ccccc2)NC(=O)[C@H](CCN)NC1=O)[C@@H](C)O
MIC (Klebsiella pneumoniae [1]): 2 µg/mL (≈ 1.66 µM) | MIC (Klebsiella pneumoniae [2]): 2 µg/mL (≈ 1.66 µM) | MIC (Enterobacter cloacae [3]): 8 µg/mL (≈ 6.65 µM) | MIC (Acinetobacter baumannii [4]): > 32 µg/mL | MIC (Acinetobacter baumannii [5]): 32 µg/mL (≈ 26.6 µM) | MIC (Pseudomonas aeruginosa [6]): 32 µg/mL (≈ 26.6 µM) | MIC (Acinetobacter baumannii [7]): 4 µg/mL (≈ 3.32 µM) | MIC (Enterobacter cloacae [8]): > 32 µg/mL | MIC (Klebsiella pneumoniae [9]): 0.5 µg/mL (≈ 0.415 µM) | MIC (Pseudomonas aeruginosa [10]): 8 µg/mL (≈ 6.65 µM) | MIC (Acinetobacter baumannii [11]): 2 µg/mL (≈ 1.66 µM) | MIC (Enterobacter cloacae [12]): 2 µg/mL (≈ 1.66 µM) | MIC (Klebsiella pneumoniae [13]): 2 µg/mL (≈ 1.66 µM) | MIC (Pseudomonas aeruginosa [14]): 0.5 µg/mL (≈ 0.415 µM) | MIC (Pseudomonas aeruginosa [15]): 2 µg/mL (≈ 1.66 µM) | MIC (Klebsiella pneumoniae [16]): 4 µg/mL (≈ 3.32 µM) | MIC (Pseudomonas aeruginosa [17]): 4 µg/mL (≈ 3.32 µM)
